Reference: patent US20070128217A1 (priority 2003, published 2007)

Assays:
[1] = system: rabbit serum obtained by immunizing a rabbit with the SARS-CoV strain Frankfurt 1; type: binding; set-up: Binding of a rabbit serum to linear peptides / Binding of a rabbit serum to looped peptides / Rabbit serum linear peptides / Rabbit serum looped peptides / Binding of a rabbit serum to linear peptides of protein N of SARS-CoV Urbani (Rabbit serum linear peptides) / Binding of a rabbit serum to looped/cyclic peptides of protein N of SARS-CoV Urbani (Rabbit serum looped peptides): unit not given here
[2] = system: antibodies in sera from SARS patients (sera 1a, 1b, 2, 6, 37, 62, London, SARS-yellow, SARS-green); type: binding, human; set-up: Binding of serum 6 to linear peptides of protein X1 of SARS-CoV Urbani / Binding of serum 37 to linear peptides of protein X1 of SARS-CoV Urbani / Binding of serum 6 to looped/cyclic peptide (PEPSCAN-ELISA) / Binding of serum 37 to looped/cyclic peptide (PEPSCAN-ELISA) / Binding of serum 37 to looped/cyclic peptides of protein X1 of SARS-CoV Urbani / Binding of serum 6 to linear peptides of protein X2 / Binding of serum 37 to linear peptides of protein X2 / Binding of serum 37 to looped/cyclic peptides of protein X2 of SARS-CoV Urbani / Binding of serum 6 to linear peptides of protein M of SARS-CoV Urbani / Binding of serum 37 to linear peptides of protein M of SARS-CoV Urbani / Binding of serum 6 to looped/cyclic peptides of protein M of SARS-CoV Urbani / Binding of serum 37 to looped/cyclic peptides of protein M of SARS-CoV Urbani / Binding of serum 6 to linear peptides of protein X3 of SARS-CoV Urbani / Binding of serum 37 to linear peptides of protein X3 of SARS-CoV Urbani / Binding of serum 37 to looped/cyclic peptides of protein X3 of SARS-CoV Urbani / Binding of serum 6 to linear peptides of protein X4 of SARS-CoV Urbani / Binding of serum 37 to linear peptides of protein X4 of SARS-CoV Urbani / Binding of serum 37 to looped/cyclic peptides of protein X4 of SARS-CoV Urbani / Binding of serum 6 to linear peptides of protein X5 of SARS-CoV Urbani / Binding of serum 37 to linear peptides of protein X5 of SARS-CoV Urbani / Binding of serum 37 to looped/cyclic peptides of protein X5 of SARS-CoV Urbani / Binding of serum 6 to linear peptides of protein N of SARS-CoV Urbani / Binding of serum 37 to linear peptides of protein N of SARS-CoV Urbani / Binding of serum 6 to linear peptide (PEPSCAN-ELISA) / Binding of serum 1a to looped/cyclic peptides of protein N of SARS-CoV Urbani / Binding of serum 1b to looped/cyclic peptides of protein N of SARS-CoV Urbani / Binding of serum 2 to looped/cyclic peptides of protein N of SARS-CoV Urbani / Binding of serum 6 to looped/cyclic peptides of protein N of SARS-CoV Urbani / Binding of serum 37 to looped/cyclic peptides of protein N of SARS-CoV Urbani / Binding of serum 62 to looped/cyclic peptides of protein N of SARS-CoV Urbani / Binding of serum London to looped/cyclic peptides of protein N of SARS-CoV Urbani / Binding of serum SARS-green to looped/cyclic peptides of protein N of SARS-CoV Urbani: unit not given here
[3] = system: control sera (pooled serum of ten healthy LUMC hospital workers; commercial negative donor pooled serum from the Dutch bloodbank); type: binding, human; set-up: Binding of Control serum LUMC to linear peptides / Binding of Control serum Blood-bank to linear peptides / Binding of Control serum LUMC to looped peptides / Binding of Control Serum Blood-Bank to Looped peptides / Binding of Control serum LUMC to linear peptides of the protein M of SARS-CoV Urbani / Binding of Control serum Blood-bank to linear peptides of the protein M of SARS-CoV Urbani / Binding of Control serum LUMC to looped peptides of the protein M of SARS-CoV Urbani / Binding of Control Serum Blood-Bank to Looped peptides of the protein M of SARS-CoV Urbani: unit not given here

## QELYSPLFLIVAALV
[1]
  Rabbit serum linear peptides: 0.4
  Rabbit serum looped peptides: 0.5
[2]
  Binding of serum 1a to linear peptides of protein X4 of SARS-CoV Urbani: 0.7
  Binding of serum 1a to looped/cyclic peptides of protein X4 of SARS-CoV Urbani: 0.6
  Binding of serum 1b to linear peptides of protein X4 of SARS-CoV Urbani: 0.5
  Binding of serum 1b to looped/cyclic peptides of protein X4 of SARS-CoV Urbani: 0.4
  Binding of serum 2 to linear peptides of protein X4 of SARS-CoV Urbani: 0.8
  Binding of serum 2 to looped/cyclic peptides of protein X4 of SARS-CoV Urbani: 0.6
  Binding of serum 6 to linear peptides of protein X4 of SARS-CoV Urbani: 0.6
  Binding of serum 6 to looped/cyclic peptides of protein X4 of SARS-CoV Urbani: 0.3
  Binding of serum 37 to linear peptides of protein X4 of SARS-CoV Urbani: 0.7
  Binding of serum 37 to looped/cyclic peptides of protein X4 of SARS-CoV Urbani: 0.6
  Binding of serum 62 to linear peptides of protein X4 of SARS-CoV Urbani: 0.7
  Binding of serum 62 to looped/cyclic peptides of protein X4 of SARS-CoV Urbani: 0.6
  Binding of serum London to linear peptides of protein X4 of SARS-CoV Urbani: 0.7
  Binding of serum London to looped/cyclic peptides of protein X4 of SARS-CoV Urbani: 0.3
  Binding of serum SARS-green to linear peptides of protein X4 of SARS-CoV Urbani: 0.5
  Binding of serum SARS-green to looped/cyclic peptides of protein X4 of SARS-CoV Urbani: 0.6
  Binding of serum SARS-yellow to linear peptides of protein X4 of SARS-CoV Urbani: 0.2
  Binding of serum SARS-yellow to looped/cyclic peptides of protein X4 of SARS-CoV Urbani: 0.5
[3]
  Binding of Control Serum Blood-Bank to Looped peptides: 0.7
  Binding of Control serum Blood-bank to linear peptides: 0.6
  Binding of Control serum LUMC to linear peptides: 0.6
  Binding of Control serum LUMC to looped peptides: 0.7

## QFAYSNRNRFLYIIK
[1]
  Rabbit serum linear peptides: 0.4
  Rabbit serum looped peptides: 1.2
[2]
  Binding of serum 1a to linear peptides of protein M of SARS-CoV Urbani: 0.7
  Binding of serum 1b to linear peptides of protein M of SARS-CoV Urbani: 0.6
  Binding of serum 2 to linear peptides of protein M of SARS-CoV Urbani: 0.5
  Binding of serum 37 to linear peptides of protein M of SARS-CoV Urbani: 0.4
  Binding of serum 62 to linear peptides of protein M of SARS-CoV Urbani: 0.9
  Binding of serum London to linear peptides of protein M of SARS-CoV Urbani: 0.4
  Binding of serum SARS-green to linear peptides of protein M of SARS-CoV Urbani: 0.5
  Binding of serum SARS-yellow to linear peptides of protein M of SARS-CoV Urbani: 0.3
  Recognition of the peptide by sera of SARS-CoV infected individuals, and form (linear, looped/cyclic) in which it is recognized: recognized in looped/cyclic form
[3]
  Binding of Control Serum Blood-Bank to Looped peptides of the protein M of SARS-CoV Urbani: 0.6
  Binding of Control serum Blood-bank to linear peptides of the protein M of SARS-CoV Urbani: 0.6
  Binding of Control serum LUMC to linear peptides of the protein M of SARS-CoV Urbani: 0.8
  Binding of Control serum LUMC to looped peptides of the protein M of SARS-CoV Urbani: 0.8

## QFMMSRRRLLACLCK
[1]
  Binding of a rabbit serum to linear peptides: 0.5
  Binding of a rabbit serum to looped peptides: 1.9
[2]
  Binding of serum 1a to linear peptides of protein X2: 0.7
  Binding of serum 1a to looped/cyclic peptides of protein X2 of SARS-CoV Urbani: 0.4
  Binding of serum 1b to linear peptides of protein X2: 0.5
  Binding of serum 1b to looped/cyclic peptides of protein X2 of SARS-CoV Urbani: 0.5
  Binding of serum 2 to linear peptides of protein X2: 0.5
  Binding of serum 2 to looped/cyclic peptides of protein X2 of SARS-CoV Urbani: 0.5
  Binding of serum 6 to linear peptides of protein X2: 0.6
  Binding of serum 6 to looped/cyclic peptides of protein X2 of SARS-CoV Urbani: 0.1
  Binding of serum 37 to linear peptides of protein X2: 0.5
  Binding of serum 37 to looped/cyclic peptides of protein X2 of SARS-CoV Urbani: 0.4
  Binding of serum 62 to linear peptides of protein X2: 0.6
  Binding of serum 62 to looped/cyclic peptides of protein X2 of SARS-CoV Urbani: 0.5
  Binding of serum London to linear peptides of protein X2: 0.6
  Binding of serum London to looped/cyclic peptides of protein X2 of SARS-CoV Urbani: 0.2
  Binding of serum SARS-green to linear peptides of protein X2: 0.4
  Binding of serum SARS-green to looped/cyclic peptides of protein X2 of SARS-CoV Urbani: 0.4
  Binding of serum SARS-yellow to linear peptides of protein X2: 0.4
  Binding of serum SARS-yellow to looped/cyclic peptides of protein X2 of SARS-CoV Urbani: 0.3
[3]
  Binding of Control Serum Blood-Bank to Looped peptides: 0.3
  Binding of Control serum Blood-bank to linear peptides: 0.7
  Binding of Control serum LUMC to linear peptides: 0.5
  Binding of Control serum LUMC to looped peptides: 0.4

## QLALYKGFQFICNLL
[1]
  Binding of a rabbit serum to linear peptides: 0.3
  Binding of a rabbit serum to looped peptides: 0.6
[2]
  Binding of serum 1a to looped/cyclic peptide (PEPSCAN-ELISA): 0.5
  Binding of serum 1b to looped/cyclic peptide (PEPSCAN-ELISA): 0.4
  Binding of serum 2 to looped/cyclic peptide (PEPSCAN-ELISA): 0.4
  Binding of serum 6 to looped/cyclic peptide (PEPSCAN-ELISA): 1.2
  Binding of serum 37 to looped/cyclic peptide (PEPSCAN-ELISA): 0.5
  Binding of serum 62 to looped/cyclic peptide (PEPSCAN-ELISA): 0.5
  Binding of serum London to looped/cyclic peptide (PEPSCAN-ELISA): 1.5
  Binding of serum SARS-green to looped/cyclic peptide (PEPSCAN-ELISA): 0.3
  Binding of serum SARS-yellow to looped/cyclic peptide (PEPSCAN-ELISA): 0.5
[3]
  Binding of Control Serum Blood-Bank to Looped peptides: 0.5
  Binding of Control serum Blood-bank to linear peptides: 0.6
  Binding of Control serum LUMC to linear peptides: 0.5
  Binding of Control serum LUMC to looped peptides: 0.6

## QRVGTDSGFAAYNRY
[1]
  Rabbit serum linear peptides: 0.4
  Rabbit serum looped peptides: 0.0
[2]
  Binding of serum 1a to linear peptides of protein M of SARS-CoV Urbani: 0.7
  Binding of serum 1a to looped/cyclic peptides of protein M of SARS-CoV Urbani: 0.6
  Binding of serum 1b to linear peptides of protein M of SARS-CoV Urbani: 0.5
  Binding of serum 1b to looped/cyclic peptides of protein M of SARS-CoV Urbani: 0.5
  Binding of serum 2 to linear peptides of protein M of SARS-CoV Urbani: 0.5
  Binding of serum 2 to looped/cyclic peptides of protein M of SARS-CoV Urbani: 0.5
  Binding of serum 6 to linear peptides of protein M of SARS-CoV Urbani: 0.3
  Binding of serum 6 to looped/cyclic peptides of protein M of SARS-CoV Urbani: 0.6
  Binding of serum 37 to linear peptides of protein M of SARS-CoV Urbani: 0.7
  Binding of serum 37 to looped/cyclic peptides of protein M of SARS-CoV Urbani: 0.6
  Binding of serum 62 to linear peptides of protein M of SARS-CoV Urbani: 0.7
  Binding of serum 62 to looped/cyclic peptides of protein M of SARS-CoV Urbani: 0.5
  Binding of serum London to linear peptides of protein M of SARS-CoV Urbani: 0.3
  Binding of serum London to looped/cyclic peptides of protein M of SARS-CoV Urbani: 0.2
  Binding of serum SARS-green to linear peptides of protein M of SARS-CoV Urbani: 0.3
  Binding of serum SARS-green to looped/cyclic peptides of protein M of SARS-CoV Urbani: 0.3
  Binding of serum SARS-yellow to linear peptides of protein M of SARS-CoV Urbani: 0.1
  Binding of serum SARS-yellow to looped/cyclic peptides of protein M of SARS-CoV Urbani: 0.6
[3]
  Binding of Control Serum Blood-Bank to Looped peptides of the protein M of SARS-CoV Urbani: 0.7
  Binding of Control serum Blood-bank to linear peptides of the protein M of SARS-CoV Urbani: 0.6
  Binding of Control serum LUMC to linear peptides of the protein M of SARS-CoV Urbani: 0.3
  Binding of Control serum LUMC to looped peptides of the protein M of SARS-CoV Urbani: 0.8

## QSTALQELLIQQWIQ
[1]
  Binding of a rabbit serum to linear peptides: 0.2
  Binding of a rabbit serum to looped peptides: 0.4
[2]
  Binding of serum 1a to linear peptides of protein X2: 0.6
  Binding of serum 1a to looped/cyclic peptides of protein X2 of SARS-CoV Urbani: 0.6
  Binding of serum 1b to linear peptides of protein X2: 0.4
  Binding of serum 1b to looped/cyclic peptides of protein X2 of SARS-CoV Urbani: 0.5
  Binding of serum 2 to linear peptides of protein X2: 0.4
  Binding of serum 2 to looped/cyclic peptides of protein X2 of SARS-CoV Urbani: 0.4
  Binding of serum 6 to linear peptides of protein X2: 0.4
  Binding of serum 6 to looped/cyclic peptides of protein X2 of SARS-CoV Urbani: 0.2
  Binding of serum 37 to linear peptides of protein X2: 0.5
  Binding of serum 37 to looped/cyclic peptides of protein X2 of SARS-CoV Urbani: 0.4
  Binding of serum 62 to linear peptides of protein X2: 0.5
  Binding of serum 62 to looped/cyclic peptides of protein X2 of SARS-CoV Urbani: 0.6
  Binding of serum London to linear peptides of protein X2: 0.5
  Binding of serum London to looped/cyclic peptides of protein X2 of SARS-CoV Urbani: 0.2
  Binding of serum SARS-green to linear peptides of protein X2: 0.6
  Binding of serum SARS-green to looped/cyclic peptides of protein X2 of SARS-CoV Urbani: 0.4
  Binding of serum SARS-yellow to linear peptides of protein X2: 0.4
  Binding of serum SARS-yellow to looped/cyclic peptides of protein X2 of SARS-CoV Urbani: 0.4
[3]
  Binding of Control Serum Blood-Bank to Looped peptides: 0.6
  Binding of Control serum Blood-bank to linear peptides: 0.6
  Binding of Control serum LUMC to linear peptides: 0.4
  Binding of Control serum LUMC to looped peptides: 0.6
